Assay results: patent publication US20230357269A1 (LES LABORATOIRES SERVIER, priority 2020, published 2023)

Each molecule was assayed against human recombinant LRRK2 protein (Homo sapiens (Human), UniProt Q5S007) (assay: LRRK2 Kinase Activity Assay (ADP-Glo)). Conditions: LRRK2 wt; LRRKtide peptide and ATP substrates; 1h-incubation at 37° C.
human recombinant LRRK2 protein, sequence (Q5S007 whole entry): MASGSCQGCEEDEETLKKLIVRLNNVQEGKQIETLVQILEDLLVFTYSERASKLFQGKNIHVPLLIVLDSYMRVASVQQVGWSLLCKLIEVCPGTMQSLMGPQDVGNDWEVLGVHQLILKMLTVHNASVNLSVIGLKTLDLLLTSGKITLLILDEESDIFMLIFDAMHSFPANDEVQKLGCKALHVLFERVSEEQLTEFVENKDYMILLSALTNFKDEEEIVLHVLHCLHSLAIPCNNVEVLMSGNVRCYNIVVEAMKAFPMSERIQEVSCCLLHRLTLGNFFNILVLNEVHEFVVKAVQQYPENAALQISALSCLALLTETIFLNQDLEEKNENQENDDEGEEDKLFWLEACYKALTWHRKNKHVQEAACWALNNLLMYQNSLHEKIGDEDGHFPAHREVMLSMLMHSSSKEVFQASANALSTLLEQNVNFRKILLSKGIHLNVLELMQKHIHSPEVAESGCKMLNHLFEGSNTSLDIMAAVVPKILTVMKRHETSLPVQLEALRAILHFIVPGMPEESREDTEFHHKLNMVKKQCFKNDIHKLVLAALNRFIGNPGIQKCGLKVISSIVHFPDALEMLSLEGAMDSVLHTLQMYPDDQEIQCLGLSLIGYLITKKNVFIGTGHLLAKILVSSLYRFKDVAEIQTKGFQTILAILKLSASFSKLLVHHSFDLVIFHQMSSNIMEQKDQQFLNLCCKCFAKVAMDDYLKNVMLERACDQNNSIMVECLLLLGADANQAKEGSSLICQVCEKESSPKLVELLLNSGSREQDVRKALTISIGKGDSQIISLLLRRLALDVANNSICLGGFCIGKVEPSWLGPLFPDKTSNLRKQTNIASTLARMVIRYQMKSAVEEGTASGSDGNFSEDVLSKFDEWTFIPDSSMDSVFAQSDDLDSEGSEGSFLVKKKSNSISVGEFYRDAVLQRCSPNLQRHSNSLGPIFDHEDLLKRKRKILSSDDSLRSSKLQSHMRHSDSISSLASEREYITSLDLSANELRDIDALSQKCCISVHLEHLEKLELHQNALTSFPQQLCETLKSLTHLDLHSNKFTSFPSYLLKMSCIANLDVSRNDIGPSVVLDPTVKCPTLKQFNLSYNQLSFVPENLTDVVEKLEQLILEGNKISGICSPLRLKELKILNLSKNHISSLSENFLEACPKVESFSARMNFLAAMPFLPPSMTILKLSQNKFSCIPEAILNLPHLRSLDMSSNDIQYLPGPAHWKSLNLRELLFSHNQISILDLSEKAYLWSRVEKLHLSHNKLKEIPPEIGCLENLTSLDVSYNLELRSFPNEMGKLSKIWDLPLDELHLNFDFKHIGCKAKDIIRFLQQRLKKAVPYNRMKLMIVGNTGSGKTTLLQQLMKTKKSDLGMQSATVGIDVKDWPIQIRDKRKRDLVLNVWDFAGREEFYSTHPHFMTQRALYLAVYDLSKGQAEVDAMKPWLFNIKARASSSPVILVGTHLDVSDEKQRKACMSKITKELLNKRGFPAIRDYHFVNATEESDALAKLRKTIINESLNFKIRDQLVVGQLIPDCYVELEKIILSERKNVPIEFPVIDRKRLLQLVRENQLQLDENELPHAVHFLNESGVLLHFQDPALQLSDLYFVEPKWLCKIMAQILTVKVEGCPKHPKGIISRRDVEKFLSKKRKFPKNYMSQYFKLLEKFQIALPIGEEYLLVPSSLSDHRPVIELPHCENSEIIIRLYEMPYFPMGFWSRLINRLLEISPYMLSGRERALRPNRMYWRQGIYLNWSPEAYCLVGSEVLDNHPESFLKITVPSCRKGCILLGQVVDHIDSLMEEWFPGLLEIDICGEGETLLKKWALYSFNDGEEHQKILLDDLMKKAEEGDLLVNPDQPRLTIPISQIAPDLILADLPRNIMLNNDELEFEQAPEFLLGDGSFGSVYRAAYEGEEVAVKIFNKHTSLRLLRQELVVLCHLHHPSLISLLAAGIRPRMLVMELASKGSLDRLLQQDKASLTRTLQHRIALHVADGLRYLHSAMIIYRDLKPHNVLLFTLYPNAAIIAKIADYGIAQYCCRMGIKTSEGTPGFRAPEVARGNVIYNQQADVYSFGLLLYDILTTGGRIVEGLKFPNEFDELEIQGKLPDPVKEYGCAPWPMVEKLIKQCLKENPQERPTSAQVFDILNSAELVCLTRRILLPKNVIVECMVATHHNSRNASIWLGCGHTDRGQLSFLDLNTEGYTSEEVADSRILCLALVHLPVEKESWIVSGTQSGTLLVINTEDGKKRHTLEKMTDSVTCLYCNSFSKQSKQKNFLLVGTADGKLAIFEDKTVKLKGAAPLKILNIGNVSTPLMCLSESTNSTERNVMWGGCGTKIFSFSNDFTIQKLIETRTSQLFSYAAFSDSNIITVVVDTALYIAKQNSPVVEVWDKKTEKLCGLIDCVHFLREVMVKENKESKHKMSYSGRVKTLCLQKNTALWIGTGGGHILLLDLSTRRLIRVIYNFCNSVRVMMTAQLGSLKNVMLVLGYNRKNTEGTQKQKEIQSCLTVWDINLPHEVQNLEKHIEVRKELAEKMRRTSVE
Assay type: biochemical
Procedure: LRRK2 Kinase reactions were carried out in 384-well white polystyrene plates in a final volume of 6 μl using ADP-Glo™ Kinase Assay kit (Promega Corp.). Compound and substrates (LRRKtide peptide and ATP) in assay buffer were first dispensed in wells. Kinase reaction was then started by the addition of human recombinant LRRK2 protein. After 1h-incubation at 37° C., the enzymatic reaction was stopped by the addition of 6 μl of ADP-Glo Reagent-1 and an additional 40-minutes incubation at 23° C. (residual ATP depletion). A final 30-minutes incubation after 12 μL reagent-2 addition (ADP to ATP conversion and luciferin/luciferase reaction) was performed before luminescent signal acquisition (EnVision™ multimode plate reader-PerkinElmer, Inc.). Data from 10 individual concentrations of tested compounds (N=2) were fitted (XLfit™-ID Business Solutions Ltd) to deliver IC50s (compound concentration leading to 50% inhibition of reference enzymatic activity).
The compounds are dissolved to 5 mM in DMSO. When needed, solutions are sonicated in a bath sonicator.
Table 2 provides the IC50 values of the compounds according to the invention, obtained using the above-mentioned kinase assay. Activities are represented as +++, ++ and +, having the following meanings: • +++ means IC50<10 nM • ++ means 10 nM≤IC50<100 nM • + means 100 nM≤IC50<1 μM.
`CC1CCNC(=O)OCc2cc(F)cc(c2)-c2n[nH]c3ccc(cc23)O1` (single isomer, unassigned) [Example 100, (13R) or (13S)-4-fluoro-13-methyl-8,14-dioxa-10,19,20-triazatetracyclo[13.5.2.1^2,6.0^18,21]tricosa-1(20),2(23),3,5,15(22),16,18(21)-heptaen-9-one] was tested, and the IC50 was less than 10 nM. `CC1CCNC(=O)OCc2cc(F)cc(c2)-c2n[nH]c3ccc(cc23)O1` (single isomer, unassigned) [Example 101, (13R) or (13S)-4-fluoro-13-methyl-8,14-dioxa-10,19,20-triazatetracyclo[13.5.2.1^2,6.0^18,21]tricosa-1(20),2(23),3,5,15(22),16,18(21)-heptaen-9-one] gave an IC50 of less than 10 nM. `C[C@H]1OC(=O)NCCCOc2ccc3[nH]nc(c3c2)-c2cc(F)cc1c2` (single isomer, unassigned) [Example 108, (7R)- or (7S)-4-fluoro-7-methyl-8,14-dioxa-10,19,20-triazatetracyclo[13.5.2.1^2,6.0^18,21]tricosa-1(20),2,4,6(23),15,17,21-heptaen-9-one] gave an IC50 of 10 to 100 nM. `C[C@H]1OC(=O)NCCCOc2ccc3[nH]nc(c3c2)-c2cc(F)cc1c2` (single isomer, unassigned) [Example 109, (7R)- or (7S)-4-fluoro-7-methyl-8,14-dioxa-10,19,20-triazatetracyclo[13.5.2.1^2,6.0^18,21]tricosa-1(20),2,4,6(23),15,17,21-heptaen-9-one] showed an IC50 of less than 10 nM. With `CCC1OC(=O)NCCCOc2ccc3[nH]nc(c3c2)-c2cccc1c2` (single isomer, unassigned) [Example 115, (7R)- or (7S)-7-ethyl-8,14-dioxa-10,19,20-triazatetracyclo[13.5.2.1^2,6.0^18,21]tricosa-1(20),2,4,6(23),15,17,21-heptaen-9-one] the IC50 was 100 to 1000 nM. `CCC1OC(=O)NCCCOc2ccc3[nH]nc(c3c2)-c2cccc1c2` (single isomer, unassigned) [Example 116, (7R)- or (7S)-7-ethyl-8,14-dioxa-10,19,20-triazatetracyclo[13.5.2.1^2,6.0^18,21]tricosa-1(20),2,4,6(23),15,17,21-heptaen-9-one] was tested, and the IC50 was less than 10 nM. For `CC1OC(=O)NCC[C@@H](C)Oc2ccc3[nH]nc(c3c2)-c2ccnc1n2` (single isomer, unassigned) [Example 130, (7R,13R)- or (7S,13R)-7,13-dimethyl-8,14-dioxa-5,10,19,20,23-penta azatetracyclo[13.5.2.1^2,6.0^18,21]tricosa-1(20),2,4,6(23),15,17,21-heptaen-9-one], the IC50 was 10 to 100 nM. With `CC1OC(=O)NCC[C@@H](C)Oc2ccc3[nH]nc(c3c2)-c2ccnc1n2` (single isomer, unassigned) [Example 131, (7R,13R)- or (7S,13R)-7,13-dimethyl-8,14-dioxa-5,10,19,20,23-penta azatetracyclo[13.5.2.1^2,6.0^18,21]tricosa-1(20),2,4,6(23),15,17,21-heptaen-9-one] the IC50 was less than 10 nM. `O=C1NCCCOc2ccc3[nH]nc(c3c2)-c2cncc(c2)CO1` [Example 1, 8,14-dioxa-4,10,19,20-tetraazatetracyclo[13.5.2.1^2,6.0^18,21]tricosa-1(20),2,4, 6(23),15,17,21-heptaen-9-one] was tested, and the IC50 was less than 10 nM. With `CN1CCCOc2ccc3[nH]nc(c3c2)-c2cncc(c2)COC1=O` [Example 2, 10-methyl-8,14-dioxa-4,10,19,20-tetraazatetracyclo[13.5.2.1^2,6.0^18,21]tricosa-1(20),2,4,6(23),15,17,21-heptaen-9-one] the IC50 was 10 to 100 nM. Molecule `O=C1NCCCOc2ccc3[nH]nc(c3c2)-c2cc(F)cc(c2)CO1` [Example 3, 4-fluoro-8,14-dioxa-10,19,20-triazatetracyclo[13.5.2.1^2,6.0^18,21]tricosa-1(20), 2,4,6(23),15,17,21-heptaen-9-one] has an IC50 of less than 10 nM. Molecule `O=C1NCCCOc2ccc3[nH]nc(c3c2)-c2cccc(n2)CO1` [Example 4, 8,14-dioxa-10,19,20,23-tetraazatetracyclo[13.5.2.1^2,6.0^18,21]tricosa-1(20),2,4, 6(23),15,17,21-heptaen-9-one] has an IC50 of less than 10 nM. Work on `O=C1NCCCOc2ccc3[nH]nc(c3c2)-c2cccc(c2)CO1` [Example 5, 8,14-dioxa-10,19,20-triazatetracyclo[13.5.2.1^2,6.0^18,21]tricosa-1(20),2,4,6(23), 15,17,21-heptaen-9-one] yielded an IC50 of less than 10 nM. `CC(C)N1CCCOc2ccc3[nH]nc(c3c2)-c2cncc(c2)COC1=O` [Example 6, 10-(propan-2-yl)-8,14-dioxa-4,10,19,20-tetraazatetracyclo[13.5.2.1^2,6.0^18,21]tricosa-1(20),2,4,6(23),15,17,21-heptaen-9-one] showed an IC50 of 10 to 100 nM. For `O=C1NCCCOc2ccc3[nH]nc(c3c2)-c2ccnc(c2)CO1` [Example 7, 8,14-dioxa-5,10,19,20-tetraazatetracyclo[13.5.2.1^2,6.0^18,21]tricosa-1(20),2,4, 6(23),15,17,21-heptaen-9-one], the IC50 was less than 10 nM. `COc1cc2cc(c1)-c1n[nH]c3ccc(cc13)OCCCNC(=O)OC2` [Example 8, 4-methoxy-8,14-dioxa-10,19,20-triazatetracyclo[13.5.2.1^2,6.0^18,21]tricosa-1(20),2,4,6(23),15,17,21-heptaen-9-one] gave an IC50 of less than 10 nM. For `O=C1NCCCOc2ccc3[nH]nc(c3c2)-c2ccc(F)c(c2)CO1` [Example 10, 5-fluoro-8,14-dioxa-10,19,20-triazatetracyclo[13.5.2.1^2,6.0^18,21]tricosa-1(20), 2,4,6(23),15,17,21-heptaen-9-one], the IC50 was less than 10 nM. Molecule `Cc1ccc2cc1COC(=O)NCCCOc1ccc3[nH]nc-2c3c1` [Example 11, 5-methyl-8,14-dioxa-10,19,20-triazatetracyclo[13.5.2.1^2,6.0^18,21]tricosa-1(20),2,4,6(23),15,17,21-heptaen-9-one] has an IC50 of less than 10 nM. With `O=C1NCCCOc2ccc3[nH]nc(c3c2)-c2cc(cc(N3CCCC3)c2)CO1` [Example 12, 4-(pyrrolidin-1-yl)-8,14-dioxa-10,19,20-triazatetracyclo[13.5.2.1^2,6.0^18,21]tricosa-1(20),2,4,6(23),15,17,21-heptaen-9-one] the IC50 was less than 10 nM. `CC(C)N1CCN(c2cc3cc(c2)-c2n[nH]c4ccc(cc24)OCCCNC(=O)OC3)CC1` [Example 13, 4-[4-(propan-2-yl)piperazin-1-yl]-8,14-dioxa-10,19,20-triazatetracyclo[13.5.2.1^2,6.0^18,21]tricosa-1(20),2,4,6(23),15,17,21-heptaen-9-one] showed an IC50 of less than 10 nM. In the case of `O=C1NCCCOc2ccc3[nH]nc(c3c2)-c2cc(cc(N3CCC4(COC4)C3)c2)CO1` [Example 14, 4-{2-oxa-6-azaspiro[3.4]octan-6-yl}-8,14-dioxa-10,19,20-triazatetracyclo[13.5.2.1^2,6.0^18,21]tricosa-1(20),2,4,6(23),15,17,21-heptaen-9-one], the IC50 is reported as less than 10 nM. In the case of `O=C1NCCCOc2ccc3[nH]nc(c3c2)-c2cc(cc(N3CCN(C4COC4)CC3)c2)CO1` [Example 15, 4-[4-(oxetan-3-yl)piperazin-1-yl]-8,14-dioxa-10,19,20-triazatetracyclo[13.5.2.1^2,6.0^18,21]tricosa-1(20),2,4,6(23),15,17,21-heptaen-9-one], the IC50 is reported as less than 10 nM. With `O=C1NCCCOc2ccc3[nH]nc(c3c2)-c2cc(cc(N3CCOCC3)c2)CO1` [Example 16, 4-(morpholin-4-yl)-8,14-dioxa-10,19,20-triazatetracyclo[13.5.2.1^2,6.0^18,21]tricosa-1(20),2,4,6(23),15,17,21-heptaen-9-one] the IC50 was less than 10 nM. Work on `C[C@@H]1CN(c2cc3cc(c2)-c2n[nH]c4ccc(cc24)OCCCNC(=O)OC3)C[C@H](C)O1` [Example 17, 4-[(2R,6S)-2,6-dimethylmorpholin-4-yl]-8,14-dioxa-10,19,20-triazatetra cyclo[13.5.2.1^2,6.0^18,21]tricosa-1(20),2,4,6(23),15,17,21-heptaen-9-one] yielded an IC50 of less than 10 nM. In the case of `Cc1cc2cc(c1)-c1n[nH]c3ccc(cc13)OCCCNC(=O)OC2` [Example 18, 4-methyl-8,14-dioxa-10,19,20-triazatetracyclo[13.5.2.1^2,6.0^18,21]tricosa-1(20),2,4,6(23),15,17,21-heptaen-9-one], the IC50 is reported as less than 10 nM. `COc1ccc2cc1COC(=O)NCCCOc1ccc3[nH]nc-2c3c1` [Example 19, 5-methoxy-8,14-dioxa-10,19,20-triazatetracyclo[13.5.2.1^2,6.0^18,21]tricosa-1(20),2,4,6(23),15,17,21-heptaen-9-one] gave an IC50 of less than 10 nM. `O=C1NCCCOc2ccc3[nH]nc(c3c2)-c2cc(cc(N3CCC(F)(F)CC3)c2)CO1` [Example 20, 4-(4,4-difluoropiperidin-1-yl)-8,14-dioxa-10,19,20-triazatetracyclo[13.5.2.1^2,6.0^18,21]tricosa-1(20),2,4,6(23),15,17,21-heptaen-9-one] gave an IC50 of less than 10 nM. `O=C1NCCCOc2ccc3[nH]nc(c3c2)-c2cc(cc(N3CCC(F)(F)C3)c2)CO1` [Example 21, 4-(3,3-difluoropyrrolidin-1-yl)-8,14-dioxa-10,19,20-triazatetracyclo[13.5.2.1^2,6.0^18,21]tricosa-1(20),2,4,6(23),15,17,21-heptaen-9-one] was tested, and the IC50 was less than 10 nM. In the case of `CC1OC(=O)NCCCOc2ccc3[nH]nc(c3c2)-c2cccc1c2` (centres unmarked) [Example 22, 7-methyl-8,14-dioxa-10,19,20-triazatetracyclo[13.5.2.1^2,6.0^18,21]tricosa-1(20), 2,4,6(23),15,17,21-heptaen-9-one], the IC50 is reported as less than 10 nM.
